For the assay, the target named is T1, mouse NPY Y5 receptor (Mus musculus, UniProt O70342).
T1 construct: expressed in transfected cells
T1 sequence (O70342 1-466): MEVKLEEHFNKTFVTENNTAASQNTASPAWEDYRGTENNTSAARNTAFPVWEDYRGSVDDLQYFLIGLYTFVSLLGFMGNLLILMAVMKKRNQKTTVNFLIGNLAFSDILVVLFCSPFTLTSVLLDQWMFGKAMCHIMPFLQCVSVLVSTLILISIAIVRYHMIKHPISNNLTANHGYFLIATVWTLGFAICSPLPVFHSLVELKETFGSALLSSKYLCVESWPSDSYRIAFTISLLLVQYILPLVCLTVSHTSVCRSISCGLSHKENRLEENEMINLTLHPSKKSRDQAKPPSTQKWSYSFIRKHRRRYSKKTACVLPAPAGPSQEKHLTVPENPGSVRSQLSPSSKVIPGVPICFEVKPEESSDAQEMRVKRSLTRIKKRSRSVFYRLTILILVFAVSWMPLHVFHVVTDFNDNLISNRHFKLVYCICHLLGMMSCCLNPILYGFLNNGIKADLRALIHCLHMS
Description: Affinity for NPY Y5 receptor: 125I peptide YY binding to membranes of CHO cells expressing mouse NPY Y5 receptor. Conditions: mouse NPY Y5 receptor in CHO cell membranes, 125I peptide YY 60 pM, 25° C., 2 hours. From the text: cDNA sequence encoding mouse NPY Y5 receptor (Biochem. Biophys. Acta 1328: 83-89, 1997) was cloned in the expression vector (pME18S, Takebe et al. Mol. Cell. Biol. 8, 466-472). The obtained expression vector was transfected into CHO cells as a host according to the instruction manual using Lipofectamine reagent (Trademark, Gibco BRL Co., Ltd.). The cells that stably express NPY Y5 receptor were obtained.
The membrane samples prepared from the CHO cells expressing NPY Y5 receptor, the compound of the invention and 30,000 cpm ^125I peptide YY (60 pM of final concentration: Amersham) were incubated in the assay buffer (20 mM HEPES-Hanks buffer containing 0.1% bovine serum albumin, pH 7.4) at 25° C. for 2 hours. The membrane samples were then filtered from the mixture through a glassfilter (GF/C) presoaked with 1% polyethyleneimine. After washing with 50 mM Tris-HCl buffer (pH 7.4), radioactivity retained on the filters was determined using gamma counter. Non-specific binding was determined in the presence of 200 nM of peptide YY and calculated the 50% inhibitory concentration (IC50 value) of the test compound for specific peptide YY binding (Inui, A. et al. Endocrinology 131, 2090-2096 (1992)).

The values that follow come from patent publication US8889674B2, “Piperidine and pyrrolidine derivatives having NPY Y5 receptor antagonism” (Shionogi & Co., Ltd., priority 2009, dated 2014).

Broadly, the IC50 is the concentration needed to halve the response being measured. A lower IC50 goes with greater potency.

Each structure is given as a SMILES string.

`CC(=O)N1CCC[C@@H]1C(=O)N1CCC(C(=O)Nc2cccc(-c3ccccc3F)c2)CC1` [Ia-4] showed an IC50 of 470 pM.

With `CC(=O)N1CCC[C@@H]1C(=O)N1CCC(c2nc3ccc(-c4ccccc4F)cc3[nH]2)CC1` [Ia-5], the IC50 was 280 pM.

With `C[C@@H]1CC(F)(F)CN1C(=O)N1CCC(C(=O)Nc2cccc(-c3ccccc3F)c2)CC1` [Ia-18], the concentration for half-maximal inhibition (IC50) was determined as 1560 pM.

`O=C(Nc1ccc(OC(F)F)cc1)C1CCN(C(=O)Cn2c(-c3ccccc3)noc2=O)CC1` [Ia-19]: the IC50 was 290 pM.

`CC(C)c1noc(=O)n1CC(=O)N1CCC(C(=O)Nc2cccc(-c3ccccc3F)c2)CC1` [Ia-22] had an IC50 of 220 pM.

`O=C(Cn1cc(Cl)ccc1=O)N1CCC(c2cc3cc(OC(F)F)ccc3[nH]2)CC1` [Ia-28] had an IC50 of 960 pM.

With `O=C(Cn1cc(Cl)ccc1=O)N1CCC(c2cc3cc(-c4ccccn4)ccc3[nH]2)CC1` [Ia-29], the IC50 was determined as 970 pM.

In turn, `N#Cc1ccccc1C(=O)N1CCC(C(=O)Nc2ccn(-c3ccccc3F)n2)CC1` [Ia-34] registered an IC50 of 590 pM.

Regarding `N#Cc1ccccc1C(=O)N1CCC(C(=O)Nc2cccc(-c3ccccc3F)c2)CC1` [Ia-35], the IC50 was determined as 260 pM.

Take `N#Cc1ccccc1C(=O)N1CCC(C(=O)Nc2ccnc(-c3ccccc3F)c2)CC1` [Ia-40]: the IC50 was found to be 270 pM.

`N#Cc1ccccc1C(=O)N1CCC(C(=O)Nc2cccc(-c3ccccn3)c2)CC1` [Ia-41]: the IC50 was 310 pM.

On to `N#Cc1ccccc1C(=O)N1CCC(C(=O)Nc2ccc(-c3ccccc3)cc2)CC1` [Ia-44], for which the IC50 came out at 260 pM.

The molecule `N#Cc1ccccc1C(=O)N1CCC(C(=O)Nc2cccc(Oc3ccccc3)c2)CC1` [Ia-47] had an IC50 of 380 pM.

`N#Cc1ccccc1C(=O)N1CCC(C(=O)Nc2cccc(Oc3ccccc3F)c2)CC1` [Ia-52] returned an IC50 of 280 pM.

`N#Cc1ccccc1C(=O)N1CCC(C(=O)Nc2cccc(-c3nccs3)c2)CC1` [Ia-54] showed an IC50 of 390 pM.

In the case of `CC(C)n1ccc2cc(NC(=O)C3CCN(C(=O)c4ccccc4C#N)CC3)ccc21` [Ia-57], the IC50 turned out to be 230 pM.

In turn, `CC(C)c1ccccc1C(=O)N1CCC(C(=O)Nc2ccc(OC(F)F)cc2)CC1` [Ia-62] yielded an IC50 of 1770 pM.

Regarding `N#Cc1ccccc1C(=O)N1CC[C@H](C(=O)Nc2cccc(-c3ccccc3F)c2)C1` [Ia-63], the half-maximal inhibitory concentration (IC50) was found to be 330 pM.

Turning to `N#Cc1ccccc1C(=O)N1CC[C@H](C(=O)Nc2ccn(-c3ccccc3F)n2)C1` [Ia-65], the IC50 came to 250 pM.

`N#Cc1ccc(F)cc1C(=O)N1CCC(C(=O)Nc2cccc(-c3ccccc3F)c2)CC1` [Ia-68] gave an IC50 of 200 pM.

In the case of `N#Cc1ccc(F)cc1C(=O)N1CCC(C(=O)Nc2cccc(-c3ccccn3)c2)CC1` [Ia-70], the IC50 worked out at 180 pM.

`N#Cc1ccc(F)cc1C(=O)N1CCC(C(=O)Nc2cccc(-c3ncccn3)c2)CC1` [Ia-71]: the IC50 amounted to 370 pM.

The molecule `N#Cc1ccccc1C(=O)N1CCC(c2nc(-c3ccc(Cl)c(Cl)c3)c[nH]2)CC1` [Ia-85] showed an IC50 of 120 pM.

`N#Cc1ccccc1C(=O)N1CCC(c2nc(-c3cccc(C(F)(F)F)c3)c[nH]2)CC1` [Ia-87] yielded an IC50 of 170 pM.

Take `Cc1[nH]c(C2CCN(C(=O)c3ccccc3C#N)CC2)nc1-c1ccccc1` [Ia-88]: the IC50 stood at 350 pM.

The molecule `N#Cc1ccccc1C(=O)N1CCC(c2nc3cc(-c4ccccc4F)ccc3[nH]2)CC1` [Ia-93] came in with an IC50 of 190 pM.

The molecule `N#Cc1ccccc1C(=O)N1CCC(c2cc(-c3ccc(Cl)c(Cl)c3)n[nH]2)CC1` [Ia-94] had an IC50 of 300 pM.

Turning to `N#Cc1ccccc1CN1CCC(C(=O)Nc2cccc(-c3ccccc3F)c2)CC1` [Ia-99], the IC50 came to 640 pM.

For the molecule `O=C(Nc1cccc(-c2ccccc2F)c1)C1CCN(C(=O)c2ccccc2C(F)(F)F)CC1` [Ia-104], the IC50 was found to be 2000 pM.

Molecule `O=C(Nc1ccn(-c2ccccc2F)n1)[C@H]1CCN(C(=O)c2ccccc2C(F)(F)F)C1` [Ia-106] came in with an IC50 of 1500 pM.

As to `CC(C)n1ccc2cc(NC(=O)C3CCN(C(=O)c4ccccc4C(F)(F)F)CC3)ccc21` [Ia-108], the IC50 came out at 480 pM.

In the case of `O=C(Nc1cccc(-c2ccccc2F)c1)C1CCN(C(=O)c2cc(Cl)ccn2)CC1` [Ia-113], the IC50 was determined as 4280 pM.

`CC(C)n1cccc1C(=O)N1CCC(C(=O)Nc2cccc(-c3ccccc3F)c2)CC1` [Ia-116] displayed an IC50 of 1430 pM.
